For experiment [1], the system named is T cell transfer adoptive model of colitis. Nature of the experiment: T cell transfer adoptive model of colitis, body weight. It is filed as in vivo, C57BL/6NRj-Rag2^tm1Ciphe/Rj mice. The conditions noted are these: day 55; oral daily; ABX464 100 mg/kg, etrasimod 3 mg/kg, ozanimod 1.5 mg/kg, alone or combined. As for the experimental part:
(§1) 8-week-old male C57BL/6 mice and 6-week-old male C57BL/6NRj-Rag2^tm1Ciphe/Rj mice were purchased from Janvier Labs and housed in accordance with French and European regulations. The colony is maintained at 21±1° C., 50±5% humidity and under an alternating 12/12-hours light/dark cycle (light at 6:00 AM). Standard food and water were given ad libitum. Animals were allowed to acclimate to the animal facility at least 10 days prior to conducting the study.
Spleens were dissected from C57BL/6 male donor mice and placed in a PBS+2% FBS buffer. Single-cell suspension was generated with Gentle Macs Dissociator followed by mashing cells through 40-μm nylon mesh strainers. Cells were pelleted and suspended in ACK lysis buffer for 5 minutes at RT (room temperature) followed by the addition of cold PBS+2% FBS buffer. CD4+ T cells were enriched by negative selection using a CD4+ T-cell isolation kit (Miltenyi) and LS magnetic columns. The flow through was collected, and cells were centrifuged and resuspended in PBS+2% FBS buffer. Antibodies (CD45RB-PE; CD4 FITC) were added and incubated on ice for 30 minutes protected from light. Cells were washed with buffer, centrifuged, resuspended and sorted using BD FACSAria™ Fusion Flow Cytometer. […]
Weight was monitored over the period of the study (55 days), and the effect on body weight over the time period is shown in FIGS. 1A-1B. […]

Experiment [2] has as its system cytokines (TNFα, IL-6, IFNg, and IL17) in blood. Nature of the experiment: T cell transfer adoptive model of colitis, cytokine levels in blood (V-PLEX proinflammatory panel). It is filed as in vivo, C57BL/6NRj-Rag2^tm1Ciphe/Rj mice. The conditions noted are these: day 55; oral daily; ABX464 100 mg/kg, etrasimod 3 mg/kg, ozanimod 1.5 mg/kg, alone or combined. As for the experimental part: as §1
Spleens were dissected from C57BL/6 male donor mice and placed in a PBS+2% FBS buffer. Single-cell suspension was generated with Gentle Macs Dissociator followed by mashing cells through 40-μm nylon mesh strainers. Cells were pelleted and suspended in ACK lysis buffer for 5 minutes at RT (room temperature) followed by the addition of cold PBS+2% FBS buffer. CD4+ T cells were enriched by negative selection using a CD4+ T-cell isolation kit (Miltenyi) and LS magnetic columns. The flow through was collected, and cells were centrifuged and resuspended in PBS+2% FBS buffer. Antibodies (CD45RB-PE; CD4 FITC) were added and incubated on ice for 30 minutes protected from light. Cells were washed with buffer, centrifuged, resuspended and sorted using BD FACSAria™ Fusion Flow Cytometer. CD4+CD45high and CD4+CD45low cells were sorted, centrifuged and resuspended in sterile PBS. A total of 5×10^5 cells CD4+CD45high or CD4+CD45low were intraperitoneally injected to 6-week-old male C57BL/6NRj-Rag2^tm1Ciphe/Rj mice. The group “high” (injected with CD4+CD45high) represents the […] and the group “low” (injected with CD4+CD45low) represents the […].
Rag2^tm1Ciphe/Rj mice injected with CD4+CD45high or CD4+CD45low (controls) were orally dosed daily (10 ml/kg) beginning on the day of the transfer (1 h before the cell transfer at Day 0) until day 55 with vehicle (0.5% methylcellulose) and Rag2^tm1Ciphe/Rj mice injected with CD4+CD45high were orally dosed daily with one of the following 8-Chloro-N-(4-(trifluoromethoxy)phenyl)quinolin-2-amine (ABX464) (100 mg/kg), Etrasimod (3 mg/kg), Ozanimod (1.5 mg/kg), ABX464+Etrasimod (100 mg/kg and 3 mg/kg) or ABX464+Ozanimod (100 mg/kg and 1.5 mg/kg). All mice were weighed daily.
At day 55, mice were anesthetized with isoflurane. Blood was collected at Tmax and mice were euthanized to harvest tissues. Cytokines concentrations plasma were determined using V-PLEX proinflammatory Panel mouse kit (Meso Scale Diagnostics).
Statistical analysis was performed on mean+/−standard deviation by one way ANOVA followed by Kruskal-Wallis's multiple comparisons test. Asterisk indicates the significance of the differences: *P<0.05, **P<0.01, ***P<0.001, ****P<0.0001.
In addition, a Welch ANOVA was performed on log transformed data for each cytokine, based on the above results.
A synergy was assessed by comparing each combination group effect versus vehicle to the sum of the corresponding compound alone groups' effects versus vehicle (Bonferroni-Holm's adjustment for multiplicity).
The following tables give the estimation and 95% confidence interval (95% CI) of the difference between Combination effect and Sum of compounds alone effects for each cytokine.

Experiment [3] concerns chronic plaque psoriasis; relapsing-remitting multiple sclerosis. The conditions noted are these: patients with moderate to severe chronic plaque psoriasis and patients with relapsing-remitting multiple sclerosis; cited from earlier work.
Experiment [4] has as its system peripheral blood lymphocytes. The conditions noted are these: oral administration; cited from earlier work.
The test system of the next experiment is active SPMS. The following applies: cited from earlier work.

SMILES strings stand for the structures.

With `FC(F)(F)Oc1ccc(Nc2ccc3cccc(Cl)c3n2)cc1` [ABX464, 8-Chloro-N-(4-(trifluoromethoxy)phenyl)quinolin-2-amine], the body weight result in experiment [1] was “weight gain”. In addition, in experiment [2], the “plasma level of IFNg” value is on record as “did not reduce”, the “plasma level of IL17” value is on record as “reduced”, the “plasma level of IL-6” value was “did not reduce” and the “plasma level of TNFα” value is “reduced”.

In the case of `O=C(O)C[C@H]1CCc2c1[nH]c1ccc(OCc3ccc(C4CCCC4)c(C(F)(F)F)c3)cc21` [Etrasimod], in experiment [1], the body weight entry is listed as “protection from weight loss”. Further, in experiment [2], the “plasma level of IFNg” value was “reduced”, the “plasma level of IL17” value is “did not reduce”, the “plasma level of IL-6” value is on record as “did not reduce” and the “plasma level of TNFα” value was “reduced”.

Turning to `CC(C)Oc1ccc(-c2nc(-c3cccc4c3CC[C@@H]4NCCO)no2)cc1C#N` [Ozanimod], in experiment [2], the “plasma level of IFNg” value is recorded as “reduced”, the “plasma level of IL17” value is reported as “did not reduce”, the “plasma level of IL-6” value is recorded as “did not reduce” and the “plasma level of TNFα” value is listed as “reduced”.

Take `CCC/N=C1\S/C(=C\c2ccc(OC[C@H](O)CO)c(Cl)c2)C(=O)N1c1ccccc1C` [Ponesimod, (R)-5-[3-chloro-4-(2,3-dihydroxy-propoxy)-benz[Z]ylidene]-2-([Z]-propylimino)-3-o-tolyl-thiazolidin-4-one]: the “clinical benefit in phase II/phase III trials” value in experiment [3] was “clinical benefit”. The “number of peripheral blood lymphocytes” value in experiment [4] was “consistent, sustained, and dose-dependent reduction”.

For the compound `CCc1cc(/C(C)=N/OCc2ccc(C3CCCCC3)c(C(F)(F)F)c2)ccc1CN1CC(C(=O)O)C1` [Siponimod, 1-(4-[1-[(E)-4-Cyclohexyl-3-trifluoromethyl-benzyloxyimino]-ethyl]-2-ethyl-benzyl)-azetidine-3-carboxylic acid], in the experiment on active SPMS, the “risk of disability and MS relapses” value is listed as “decreases”.

The values above are taken from patent US20250032474A1, “COMBINATION OF 8-CHLORO-N-(4-(TRIFLUOROMETHOXY)PHENYL)QUINOLIN-2-AMINE AND ITS DERIVATIVES WITH A S1P RECEPTOR MODULATOR” (ABIVAX, priority 0001, published 2025).
